Test results reported in patent publication US20110039763A1, “TARGETED ANTIMICROBIAL MOIETIES” (C3 JIAN, INC., priority 2009, published 2011).
“Also recorded” adds a separate entry of the source.

Legend:
[1] = tested on: microorganisms; experiment: Peptide activities: targeting/binding, antimicrobial, growth or phenotype altering (Tables 7, 8); assay type: cell-based; conditions: peptides having multiple activities
[2] = tested on: microorganisms; experiment: Targeting peptide binding to target microorganisms (Tables 3, 10, 12); conditions: microorganism(s) the targeting peptide binds; binding in aqueous buffers that varied with peptide solubility, preferably 1x PBS
[3] = tested on: microorganisms; experiment: Morphology, biofilm and growth disrupting peptides (Table 5); assay type: cell-based; set-up: key: A: Peptide aggregates; B: Less hyphal formation; Clumps; Diffuse clumps and small polyps; F: Diffuse growth; H: Thin; I: Growth inhibition; Microcolony formation; Rippled; Small polyps; Thick; W: Halo formation on top, microlonies on bottom
Source text: In certain embodiments peptides that induce alterations in phenotype or other biological activities can also be used as antimicrobial effector moieties.

Substance | Activities [1] | Target(s) [2] | Organism, effect: MRSA [3] | Organism, effect: S. epidermidis [3] | Organism, effect: C. jeikeium [3] | Organism, effect: M. luteus [3]
PF-026: peptide having multiple activities (SIHFIN; Peptide with targeting and/or antimicrobial activity) | G B | S. epidermidis and M. luteus and P. mirabilis and C. albicans and MRSA and E. faecalis and C. jeikeium | MRSA (M) |  |  | 
PF-027: peptide having multiple activities (HNARKYLEFISQKIDGDKLTKEDSL; Peptide with targeting and/or antimicrobial activity) | G B | M. luteus and MRSA and E. faecalis and C. jejuni | MRSA (M) | S. epidermidis (D) |  | 
PF-029: peptide having multiple activities (NSTNE; Peptide with targeting and/or antimicrobial activity) | G B | S. epidermidis; also recorded: M. luteus; also recorded: C. albicans; also recorded: C. jejuni | MRSA (M) |  |  | 
PF-031: peptide having multiple activities (MPHHSTTSSRIVVPAHQSNMASTPNLSITP; Peptide with targeting and/or antimicrobial activity) | G B | M. luteus; also recorded: C. albicans | MRSA (M) |  |  | 
PF-034: peptide having multiple activities (EPKKKHFPKMESASSEP; Peptide with targeting and/or antimicrobial activity) | G B | M. luteus |  | S. epidermidis (A) |  | 
PF-035: peptide having multiple activities (SFYESY; Peptide with targeting and/or antimicrobial activity) | G B | S. epidermidis and M. luteus and E. coli and C. albicans and MRSA and C. jeikeium and C. jejuni | MRSA (M) |  |  | 
PF-036: peptide having multiple activities (ILNRLSRIVSNEVTSLIYSLK; Peptide with targeting and/or antimicrobial activity) | G B | S. epidermidis and M. luteus and P. mirabilis and E. coli and C. albicans and MRSA and S. pneumoniae and C. jejuni | MRSA (R) | S. epidermidis (S) | C. jeikeium (A) | M. luteus (A)
PF-041: peptide having multiple activities (ELLVILPGFI; Peptide with targeting and/or antimicrobial activity) | G B | MRSA | MRSA (M) | S. epidermidis (R) |  | 
PF-043: peptide having multiple activities (MIKNETAYQMNELLVIRSAYAK; Peptide with targeting and/or antimicrobial activity) | G B | M. luteus; also recorded: C. jejuni | MRSA (R) | S. epidermidis (D) | C. jeikeium (A) | M. luteus (C)
PF-045: peptide having multiple activities (LDINDYRSTY; Peptide with targeting and/or antimicrobial activity) | G B | S. epidermidis; also recorded: E. coli; also recorded: E. faecalis; also recorded: C. jejuni | MRSA (S) |  |  | 
